Laboratory results from patent US20260317340A1, “COMPOUNDS, COMPOSITIONS, AND METHODS OF TREATING DISORDERS” (Chengdu Anticancer Bioscience, Ltd., priority 2023, published 2026).
Read-outs that look alike come from different tables or passages of the source.

What was measured:
[1] = test system: RPE-Neo or RPE-MYC or RPE-MYC expressing an EGFP-Histone 2B fusion protein; assay: Phenotypic screening assay: arrest in mitosis, change in DNA content (polyploidy), cell death; format: cell-based; settings: 20 nM to 20 μM, 24, 48 or 72 hours
Experimental: (§1) Human cancer cell lines were obtained from ATCC and cultured in DMEM (Gibco, Cleveland, TN, USA) supplemented with 5% fetal bovine serum (Gibco), penicillin (100 U/mL)-streptomycin (100 μg/mL) (Gibco, Cat. No. 15140-122), 2 mM L-glutamine (Gibco, 200 mM solution, Cat. No. 25030081), and 1 mM sodium pyruvate (Gibco, 100 mM solution, Cat. No. 11360070) at 37° C. in a humidified incubator that was maintained at 5% CO2.
Screening was conducted as described before (Li et al. 2019). Briefly, RPE-Neo or RPE-MYC or RPE-MYC expressing an EGFP-Histone 2B fusion protein were passaged as batches of 96-well plates, 18-24 hours before exposure to the chemical compounds of the present disclosure at concentrations from 20 nM to 20 μM. At 24, 48 or 72 hours after initiation of treatment, cells were analyzed for either an arrest in mitosis or a change in DNA content by GE IN-Cell Analyzer 2000. MTT assays of cellular proliferation were performed as previously described (Li et al. 2019).
(§2) As set forth in table 2 below, an values of greater than or equal to 1 nM and less than or equal to 1.0 μM is marked “A”; a value greater than 1.00 μM and less than or equal to 10.0 μM is marked “B”; a value greater than 10.0 μM and less than or equal to 30.0 μM is marked “C”; and a value greater than 30.0 μM and less than 1000 μM is marked “D.”

RPE-Neo or RPE-MYC cells = assay: MTT assay of cellular proliferation (proliferative arrest); format: cell-based; settings: read-out: Min. Effective conc. for Proliferative arrest (>50%)
Experimental: as §1
Screening was conducted as described before (Li et al. 2019). Briefly, RPE-Neo or RPE-MYC or RPE-MYC expressing an EGFP-Histone 2B fusion protein were passaged as batches of 96-well plates, 18-24 hours before exposure to the chemical compounds of the present disclosure at concentrations from 20 nM to 20 μM. At 24, 48 or 72 hours after initiation of treatment, cells were analyzed for either an arrest in mitosis or a change in DNA content by GE IN-Cell Analyzer 2000. MTT assays of cellular proliferation were performed as previously described (Li et al. 2019). […]
as §2

[2] = read-out: Min. Effective conc. for Along with Cell Death
[3] = ≥5%, read-out: Min. Effective conc. for Mitotic Arrest (≥5%)
[4] = ≥5%, read-out: Min. Effective conc. for Polyploidy (≥5%)

Measured: minimal effective concentration

COc1ccc(CN2C(=O)CC(c3ncc(C)o3)=Cc3ccc(-c4cnn(C)c4)cc32)cc1 [Compound 30, 1-(4-methoxybenzyl)-8-(1-methyl-1H-pyrazol-4-yl)-4-(5-methyloxazol-2-yl)-1,3-dihydro-2H-benzo[b]azepin-2-one]
0.001 to 1 µM: [1]; [2] | [1]; [3] | [1]; [4] | RPE-Neo or RPE-MYC cells

COc1ccc(CN2C(=O)CC(c3ncc(C)o3)=Cc3ccc(-c4ccn(C)n4)cc32)cc1 [Compound 31, 1-(4-methoxybenzyl)-8-(1-methyl-1H-pyrazol-3-yl)-4-(5-methyloxazol-2-yl)-1,3-dihydro-2H-benzo[b]azepin-2-one]
0.001 to 1 µM: [1]; [2] | [1]; [3] | [1]; [4] | RPE-Neo or RPE-MYC cells

COc1ccc(CN2C(=O)CC(c3ncc(C)o3)=Cc3ccc(-c4cncn4C)cc32)cc1 [Compound 32, 1-(4-methoxybenzyl)-8-(1-methyl-1H-imidazol-5-yl)-4-(5-methyloxazol-2-yl)-1,3-dihydro-2H-benzo[b]azepin-2-one]
0.001 to 1 µM: [1]; [2] | [1]; [3] | [1]; [4] | RPE-Neo or RPE-MYC cells

COc1ccc(CN2C(=O)CC(c3ncc(C)o3)=Cc3ccc(-c4cn[nH]c4)cc32)cc1 [Compound 33, 1-(4-methoxybenzyl)-4-(5-methyloxazol-2-yl)-8-(1H-pyrazol-4-yl)-1,3-dihydro-2H-benzo[b]azepin-2-one]
0.001 to 1 µM: [1]; [2] | [1]; [3] | [1]; [4] | RPE-Neo or RPE-MYC cells

COc1ccc(CN2C(=O)CC(c3ncc(C)o3)=Cc3ccc(-c4cnn(C5CC5)c4)cc32)cc1 [Compound 34, 8-(1-cyclopropyl-1H-pyrazol-4-yl)-1-(4-methoxybenzyl)-4-(5-methyloxazol-2-yl)-1,3-dihydro-2H-benzo[b]azepin-2-one]
0.001 to 1 µM: [1]; [2] | [1]; [3] | [1]; [4] | RPE-Neo or RPE-MYC cells

COc1ccc(CN2C(=O)CC(c3ncc(C)o3)=Cc3ccc(-c4cnn(C5CCNCC5)c4)cc32)cc1 [Compound 35, 1-(4-methoxybenzyl)-4-(5-methyloxazol-2-yl)-8-(1-(piperidin-4-yl)-1H-pyrazol-4-yl)-1,3-dihydro-2H-benzo[b]azepin-2-one]
0.001 to 1 µM: [1]; [2] | [1]; [3] | [1]; [4] | RPE-Neo or RPE-MYC cells

COc1ccc(CN2C(=O)CC(c3ncc(C)o3)=Cc3ccc(-c4cccnc4)cc32)cc1 [Compound 39, 1-(4-methoxybenzyl)-4-(5-methyloxazol-2-yl)-8-(pyridin-3-yl)-1,3-dihydro-2H-benzo[b]azepin-2-one]
0.001 to 1 µM: [1]; [2] | [1]; [3] | [1]; [4] | RPE-Neo or RPE-MYC cells

COc1ccc(CN2C(=O)CC(c3ncc(C)o3)=Cc3ccc(-c4ccncc4)cc32)cc1 [Compound 40, 1-(4-methoxybenzyl)-4-(5-methyloxazol-2-yl)-8-(pyridin-4-yl)-1,3-dihydro-2H-benzo[b]azepin-2-one]
0.001 to 1 µM: [1]; [2] | [1]; [3] | [1]; [4] | RPE-Neo or RPE-MYC cells

COc1ccc(CN2C(=O)CC(c3ncc(C)o3)=Cc3ccc(-c4ccc(F)nc4)cc32)cc1 [Compound 41, 8-(6-fluoropyridin-3-yl)-1-(4-methoxybenzyl)-4-(5-methyloxazol-2-yl)-1,3-dihydro-2H-benzo[b]azepin-2-one]
0.001 to 1 µM: [1]; [2] | [1]; [3] | [1]; [4] | RPE-Neo or RPE-MYC cells

COc1ccc(CN2C(=O)CC(c3ncc(C)o3)=Cc3ccc(-c4ccc(C5CC5)nc4)cc32)cc1 [Compound 43, 8-(6-cyclopropylpyridin-3-yl)-1-(4-methoxybenzyl)-4-(5-methyloxazol-2-yl)-1,3-dihydro-2H-benzo[b]azepin-2-one]
0.001 to 1 µM: [1]; [2] | [1]; [3] | [1]; [4] | RPE-Neo or RPE-MYC cells

COc1ccc(CN2C(=O)CC(c3ncc(C)o3)=Cc3ccc(-c4ccc(OC)nc4)cc32)cc1 [Compound 44, 1-(4-methoxybenzyl)-8-(6-methoxypyridin-3-yl)-4-(5-methyloxazol-2-yl)-1,3-dihydro-2H-benzo[b]azepin-2-one]
0.001 to 1 µM: [1]; [2] | [1]; [3] | [1]; [4] | RPE-Neo or RPE-MYC cells

COc1ccc(CN2C(=O)CC(c3ncc(C)o3)=Cc3ccc(-c4cncnc4)cc32)cc1 [Compound 46, 1-(4-methoxybenzyl)-4-(5-methyloxazol-2-yl)-8-(pyrimidin-5-yl)-1,3-dihydro-2H-benzo[b]azepin-2-one]
0.001 to 1 µM: [1]; [2] | [1]; [3] | [1]; [4] | RPE-Neo or RPE-MYC cells

COc1ccc(CN2C(=O)CC(c3ncc(C)o3)=Cc3ccc(-c4cnc(N)nc4)cc32)cc1 [Compound 47, 8-(2-aminopyrimidin-5-yl)-1-(4-methoxybenzyl)-4-(5-methyloxazol-2-yl)-1,3-dihydro-2H-benzo[b]azepin-2-one]
0.001 to 1 µM: [1]; [2] | [1]; [3] | [1]; [4] | RPE-Neo or RPE-MYC cells

COc1ccc(CN2C(=O)CC(c3ncc(C)o3)=Cc3ccc(-c4cnn(C5CCOC5)c4)cc32)cc1 (stereo not shown) [Compound 48, 1-(4-methoxybenzyl)-4-(5-methyloxazol-2-yl)-8-(1-(tetrahydrofuran-3-yl)-1H-pyrazol-4-yl)-1,3-dihydro-2H-benzo[b]azepin-2-one]
0.001 to 1 µM: [1]; [2] | [1]; [3] | [1]; [4] | RPE-Neo or RPE-MYC cells

COc1ccc(CN2C(=O)CC(c3ncc(C)o3)=Cc3ccc(-c4cnn(C5CCOCC5)c4)cc32)cc1 [Compound 49, 1-(4-methoxybenzyl)-4-(5-methyloxazol-2-yl)-8-(1-(tetrahydro-2H-pyran-4-yl)-1H-pyrazol-4-yl)-1,3-dihydro-2H-benzo[b]azepin-2-one]
0.001 to 1 µM: [1]; [2] | [1]; [3] | [1]; [4] | RPE-Neo or RPE-MYC cells

COc1ccc(CN2C(=O)CC(c3ncc(C)o3)=Cc3ccc(-c4cnn(CC(N)=O)c4)cc32)cc1 [Compound 50, 2-(4-(1-(4-methoxybenzyl)-4-(5-methyloxazol-2-yl)-2-oxo-2,3-dihydro-1H-benzo[b]azepin-8-yl)-1H-pyrazol-1-yl)acetamide]
0.001 to 1 µM: [1]; [2] | [1]; [3] | [1]; [4] | RPE-Neo or RPE-MYC cells

COc1ccc(CN2C(=O)CC(c3nnc(C4CC4)o3)=Cc3ccc(-c4cnn(CCN5CCOCC5)c4)cc32)cc1 [Compound 52, 4-(5-cyclopropyl-1,3,4-oxadiazol-2-yl)-1-(4-methoxybenzyl)-8-(1-(2-morpholinoethyl)-1H-pyrazol-4-yl)-1,3-dihydro-2H-benzo[b]azepin-2-one]
0.001 to 1 µM: [1]; [2] | [1]; [3] | [1]; [4] | RPE-Neo or RPE-MYC cells

COc1ccc(CN2C(=O)CC(c3ncc(C)o3)=Cc3ccc(-c4ccnc(N)c4)cc32)cc1 [Compound 55, 8-(2-Aminopyridin-4-yl)-1-(4-methoxybenzyl)-4-(5-methyloxazol-2-yl)-1,3-dihydro-2H-benzo[b]azepin-2-one]
0.001 to 1 µM: [1]; [2] | [1]; [3] | [1]; [4] | RPE-Neo or RPE-MYC cells

COc1ccc(CN2C(=O)CC(c3ncc(C)o3)=Cc3ccc(-c4cnn(C(C)(C)CO)c4)cc32)cc1 [Compound 56, 8-(1-(1-hydroxy-2-methylpropan-2-yl)-1H-pyrazol-4-yl)-1-(4-methoxybenzyl)-4-(5-methyloxazol-2-yl)-1,3-dihydro-2H-benzo[b]azepin-2-one]
0.001 to 1 µM: [1]; [2] | [1]; [3] | [1]; [4] | RPE-Neo or RPE-MYC cells
